From US7629349B2, “Pyrazolo [3,4-d] pyrimidine derivatives and their use as purinergic receptor antagonists” (Vernalis Research Limited, priority 2001, dated 2009)
Where a name gives a salt, the structure may show the parent alone. Read-outs that look alike come from different tables or passages of the source. One block for each compound: values may come before it.

Experiments:
[1] = molecular target: human adenosine A2A receptor (Homo sapiens, UniProt P29274); test: Binding affinities at hA2A receptors, displacement of [3H]-CGS 21680
Chain of human adenosine A2A receptor (P29274 whole entry): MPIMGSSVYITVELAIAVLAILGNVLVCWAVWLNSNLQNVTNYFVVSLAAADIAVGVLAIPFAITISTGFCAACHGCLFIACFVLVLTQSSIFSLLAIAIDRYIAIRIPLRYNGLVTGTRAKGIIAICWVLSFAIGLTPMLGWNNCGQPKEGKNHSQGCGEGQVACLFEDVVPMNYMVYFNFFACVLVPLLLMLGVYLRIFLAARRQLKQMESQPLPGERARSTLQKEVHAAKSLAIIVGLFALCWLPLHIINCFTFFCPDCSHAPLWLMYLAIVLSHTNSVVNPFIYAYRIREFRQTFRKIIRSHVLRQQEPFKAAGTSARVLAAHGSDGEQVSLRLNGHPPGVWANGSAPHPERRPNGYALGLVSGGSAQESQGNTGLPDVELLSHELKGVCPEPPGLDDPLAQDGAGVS

catalepsy = conditions: cited from earlier work
Parkinsonian patients = conditions: cited from earlier work
[2] = human adenosine A2A receptor, radioligand [3H]-CGS 21680

SMILES: CC(C)n1ncc2c(-c3ccco3)nc(N)nc21 (as salt: HCl) [Example 21, 4-(2-furyl)-1-(1-methylethyl)-1H-pyrazolo[3,4-d]pyrimidine-6-amine]
melting point: 191.4 to 191.5 °C

SMILES: CCCCCn1ncc2c(-c3ccco3)nc(N)nc21 (as salt: HCl) [Example 23, 4-(2-furyl)-1-n-pentyl-1H-pyrazole[3,4-d]pyrimidine-6-amine]
melting point: 218 °C

SMILES: CC(C)(C)OC(=O)n1ncc2c(-c3ccco3)nc(N)nc21 [Example 4, tert-butyl 6-amino-4-(2-furyl)-1H-pyrazolo[3,4-d]pyrimidine-1-carboxylate]
melting point: 261.9 to 262.7 °C

SMILES: CCOC(=O)Cn1ncc2c(-c3ccco3)nc(N)nc21 [Example 26, ethyl 6-amino-4-(2-furyl)-1H-pyrazolo[3,4-d]pyrimidine-1-ylacetate]
melting point: 177 to 177.1 °C

SMILES: Nc1nc(-c2ccco2)c2cnn(CC(=O)NCc3ccco3)c2n1 [Example 37, 6-amino-4-(2-furyl)-N-(2-furylmetyl)-1H-pyrazolo[3,4-d]pyrimidin-1-ylacetamide]
melting point: 247.9 to 249.4 °C

SMILES: COc1cccc(NC(=O)Cn2ncc3c(-c4ccco4)nc(N)nc32)c1 [Example 43, 6-amino-4-(2-furyl)-N-(3-methoxyphenyl)-1H-pyrazolo[3,4-d]pyrimidin-1-ylacetamide]
melting point: 267.4 to 271.5 °C

SMILES: Cc1ccc(Cn2ncc3c(-c4ccn[nH]4)nc(N)nc32)cc1 [Example 50, 1-(4-methylbenzyl)-4-(1H-pyrazol-3-yl)-1H-pyrazolo[3,4-d]pyrimidine-6-amine]
melting point: 265.8 °C

SMILES: Nc1nc(-c2nnc[nH]2)c2cnn(Cc3ccccc3F)c2n1 [Example 51, 1-(2-fluorobenzyl)-4-(1,2,4-triazol-3-yl)-1H-pyrazolo[3,4-d]pyrimidine-6-amine]
melting point: 287.9 °C | Ki [1]: 71 nM

SMILES: Nc1nc(-c2ccn[nH]2)c2cnn(Cc3cccc([N+](=O)[O-])c3)c2n1 [Example 59, 1-(3-nitrobenzyl)-4-(3-pyrazolyl)-1H-pyrazolo[3,4-d]pyrimidine-6-amine]
melting point: 278.5 to 279 °C

SMILES: Nc1cccc(Cn2ncc3c(-c4nnc[nH]4)nc(N)nc32)c1 [Example 60, 1-(3-aminobenzyl)-4-(1,2,4-triazol-3-yl)-1H-pyrazolo[3,4-d]pyrimidine-6-amine]
melting point: 193.3 to 193.4 °C

SMILES: Nc1nc(-c2nccs2)c2cnn(Cc3cccc([N+](=O)[O-])c3)c2n1 [Example 61, 1-(3-nitrobenzyl)-4-(2-thiazolyl)-1H-pyrazolo[3,4-d]pyrimidine-6-amine]
melting point: 193.3 to 193.4 °C

SMILES: Nc1cccc(Cn2ncc3c(-c4nccs4)nc(N)nc32)c1 [Example 62, 1-(3-aminobenzyl)-4-(2-thiazolyl)-1H-pyrazolo[3,4-d]pyrimidine-6-amine]
melting point: 177.8 to 178.3 °C

SMILES: COc1cccc(Cn2ncc3c(-c4ccn[nH]4)nc(N)nc32)c1 [Example 64, 1-(3-methoxybenzyl)-4-(1H-pyrazol-3-yl)-1H-pyrazolo[3,4-d]pyrimidine-6-amine]
melting point: 171 to 172 °C

SMILES: CCCn1c(=O)c2c(nc(/C=C/c3ccc(OC)c(OC)c3)n2C)n(CCC)c1=O [KF 17837, (E)-8-(3,4-dimethoxystyryl)-1,3-dipropyl-7-methylxanthine]
anticataleptic effects of a subthreshold dose of L-DOPA plus benserazide (catalepsy; in vivo): potentiated | catalepsy induced by haloperidol and reserpine (catalepsy; in vivo): reduced | cataleptic responses induced by intracerebroventricular CGS 21680 (catalepsy; oral administration): significantly ameliorated

SMILES: Cn1c(=O)c2[nH]cnc2n(C)c1=O [theophylline, 1,3-dimethylxanthine]
mean objective disability scores (Parkinsonian patients; 15 Parkinsonian patients, up to 12 weeks, 150 mg/day oral): significant improvements | patients reporting moderate or marked subjective improvement (Parkinsonian patients; of 15 Parkinsonian patients, up to 12 weeks, 150 mg/day oral): 11 | serum theophylline levels (Parkinsonian patients; slow release oral theophylline preparation 150 mg/day, after one week): 4.44 mg/L

The remaining lines, values ahead:

melting point: 249.8 to 249.9 °C
SMILES: Nc1nc(-c2ccco2)c2cnn(CC(=O)Nc3ccccn3)c2n1 (as salt: HCl) [Example 29, 6-amino-4-(2-furyl)-N-(2-pyridyl)-1H-pyrazolo[3,4-d]pyrimidin-1-ylacetamide]

melting point: 85.1 to 85.6 °C
SMILES: Clc1nc(-c2ccco2)c2cnn(CCc3ccccc3)c2n1 [Example 1, 6-chloro-4-(2-furyl)-1-(2-phenylethyl)-1H-pyrazolo[3,4-d]pyrimidine]

Ki [1, 2]: 9 nM
SMILES: Nc1nc(-c2ccco2)c2cnn(Cc3ccccc3Cl)c2n1 [Example 11, 1-(2-chlorobenzyl)-4-(2-furyl)-1H-pyrazolo[3,4-d]pyrimidine-6-amine]

Ki [1, 2]: 2 nM
SMILES: COc1cccc(Cn2ncc3c(-c4ccco4)nc(N)nc32)c1 [Example 12, 4-(2-furyl)-1-(3-methoxybenzyl)-1H-pyrazolo[2,4-d]pyrimidine-6-amine]

Ki [1]: 2 nM
SMILES: Nc1nc(-c2ccco2)c2cnn(Cc3ccccc3F)c2n1 [Example 14, 1-(2-fluorobenzyl)-4-(2-furyl)-1H-pyrazolo[3,4-d]pyrimidine-6-amine]

Ki [1]: 2 nM
SMILES: Cc1cccc(Cn2ncc3c(-c4ccco4)nc(N)nc32)c1 [Example 15, 4-(2-furyl)-1-(3-methylbenzyl)-1H-pyrazolo[3,4-d]pyrimidine-6-amine]

Ki [1, 2]: 6 nM
SMILES: Nc1nc(-c2ccco2)c2cnn(Cc3ccc(C(F)(F)F)cc3)c2n1 [Example 22, 4-(2-furyl)-1-(4-trifluoromethylbenzyl)-1H-pyrazolo[3,4-d]pyrimidine-6-amine]

Ki [1, 2]: 2 nM
SMILES: Nc1nc(-c2ccco2)c2cnn(Cc3c(F)cccc3F)c2n1 [Example 24, 1-(2,6-difluorobenzyl)-4-(2-furyl)-1H-pyrazolo[3,4-d]pyrimidine-6-amine]

Ki [1]: 5 nM
SMILES: Nc1nc(-c2cccs2)c2cnn(Cc3ccccc3F)c2n1 [Example 28, 1-(2-fluorobenzyl)-4-(2-thienyl)-1H-pyrazolo[3,4-d]pyrimidine-6-amine]

Ki [1, 2]: 4 nM
SMILES: Nc1nc(-c2ccco2)c2cnn(Cc3cccc([N+](=O)[O-])c3)c2n1 [Example 30, 4-(2-furyl)-1-(3-nitrobenzyl)-1H-pyrazolo[3,4-d]pyrimidine-6-amine]

Ki [1]: 2 nM
SMILES: Nc1nc(-c2ccco2)c2cnn(CCCc3ccccc3)c2n1 [Example 31, 4-(2-furyl)-1-(3-phenylpropyl)-1H-pyrazolo[3,4-d]pyrimidine-6-amine]

Ki [1, 2]: 4 nM
SMILES: Nc1cccc(Cn2ncc3c(-c4ccco4)nc(N)nc32)c1 [Example 32, 1-(3-aminobenzyl)-4-(2-furyl)-1H-pyrazolo[3,4-d]pyrimidine-6-amine]

Ki [1, 2]: 12 nM
SMILES: Nc1nc(-c2ccccn2)c2cnn(Cc3ccccc3F)c2n1 [Example 33, 1-(2-fluorobenzyl)-4-(2-pyridyl)-1H-pyrazolo[3,4-d]pyrimidine-6-amine]

melting point: 276.8 to 277.2 °C
SMILES: Nc1nc(-c2ccco2)c2cnn(CC(=O)NCc3ccccc3)c2n1 [Example 34, 6-amino-N-benzyl-4-(2-furyl)-1H-pyrazolo[3,4-d]pyrimidin-1-ylacetamide]

melting point: 276.8 to 277.2 °C
SMILES: Nc1nc(-c2ccco2)c2cnn(CC(=O)Nc3ccccc3)c2n1 [Example 35, 6-amino-4-(2-furyl)-N-phenyl-1H-pyrazolo[3,4-d]pyrimidin-1-ylacetamide]

melting point: 231.1 to 231.2 °C
SMILES: Nc1nc(-c2ccco2)c2cnn(CC(=O)NCCc3ccccc3)c2n1 [Example 44, 6-amino-4-(2-furyl)-N-(2-phenylethyl)-1H-pyrazolo[3,4-d]pyrimidin-1-ylacetamide]

melting point: 276.2 to 278.5 °C
SMILES: Nc1nc(-c2ccco2)c2cnn(CC(=O)Nc3ccccc3F)c2n1 [Example 45, 6-amino-N-(2-fluorophenyl)-4-(2-furyl)-1H-pyrazolo[3,4-d]pyrimidin-1-ylacetamide]

Ki [1, 2]: 16 nM
SMILES: Nc1nc(-c2ccn[nH]2)c2cnn(Cc3ccccc3F)c2n1 [Example 55, 1-(2-fluorobenzyl)-4-(3-pyrazolyl)-1H-pyrazolo[3,4-d]pyrimidine-6-amine]

Ki [1, 2]: 8 nM
SMILES: Nc1nc(-c2ccco2)c2cnn(Cc3ccccc3N)c2n1 [Example 56, 1-(2-aminobenzyl)-4-(2-furyl)-1H-pyrazolo[3,4-d]pyrimidine-6-amine]
